molecular target: MAP kinase p38 (Homo sapiens, UniProt O15264+Q15759+Q16539+P53778); assay: Binding affinity against p38 MAP kinase system; assay type: protein assay

Q: With `O=c1ncn2nc(Sc3ccccc3)ccc2c1-c1c(Cl)cccc1Cl` as the compound, how does the pIC50 read?
A: The pIC50 was 6.602.

Q: With `O=c1ncn2nc(Sc3ccc(Cl)c(Cl)c3)ccc2c1-c1c(Cl)cccc1Cl` as the compound, how does the pIC50 read?
A: The pIC50 was 6.097.

Q: How did the pIC50 turn out when `Cc1ccc(Sc2ccc3c(-c4c(Cl)cccc4Cl)c(=O)ncn3n2)cc1` was run?
A: The pIC50 was 5.854.

Q: How did the pIC50 turn out when `O=c1ncn2nc(Sc3cccc(Cl)c3)ccc2c1-c1c(Cl)cccc1Cl` was run?
A: Its pIC50 is 6.553.

Q: `O=c1ncn2nc(Sc3cccc(F)c3)ccc2c1-c1c(Cl)cccc1Cl` was tested. Which pIC50 did it give?
A: Its pIC50 is 6.347.

Q: With `Cc1cc(Cl)ccc1Sc1ccc2c(-c3c(Cl)cccc3Cl)c(=O)ncn2n1` as the compound, how does the pIC50 read?
A: The pIC50 was 6.745.

Q: For `O=c1ncn2nc(Sc3ccccc3O)ccc2c1-c1c(Cl)cccc1Cl`, which pIC50 is on record?
A: Its pIC50 is 6.444.

Q: How did the pIC50 turn out when `Cc1cccc(Sc2ccc3c(-c4c(Cl)cccc4Cl)c(=O)ncn3n2)c1` was run?
A: The pIC50 was 5.854.

Q: How did the pIC50 turn out when `Nc1cc(F)ccc1Sc1ccc2c(-c3c(Cl)cccc3Cl)c(=O)ncn2n1` was run?
A: The pIC50 was 6.658.

Q: With `Cc1ccccc1Sc1ccc2c(-c3c(Cl)cccc3Cl)c(=O)ncn2n1` as the compound, how does the pIC50 read?
A: The pIC50 was 6.699.

Q: For `O=c1ncn2nc(Sc3ccccc3Br)ccc2c1-c1c(Cl)cccc1Cl`, which pIC50 is on record?
A: The pIC50 was 6.602.

Q: How did the pIC50 turn out when `O=c1ncn2nc(Sc3ccc(F)cc3)ccc2c1-c1c(Cl)cccc1Cl` was run?
A: Its pIC50 is 7.

Q: With `Cc1ccc(Sc2ccc3c(-c4c(Cl)cccc4Cl)c(=O)ncn3n2)cc1C` as the compound, how does the pIC50 read?
A: Its pIC50 is 5.721.

Q: With `Cc1ccc(Sc2ccc3c(-c4c(Cl)cccc4Cl)c(=O)ncn3n2)c(C)c1` as the compound, how does the pIC50 read?
A: Its pIC50 is 6.577.

Q: Which pIC50 does the source give for `O=c1ncn2nc(Sc3ccc(F)cc3Cl)ccc2c1-c1c(Cl)cccc1Cl` here?
A: Its pIC50 is 7.444.

Q: How did the pIC50 turn out when `O=c1ncn2nc(Sc3ccc(F)c(Cl)c3)ccc2c1-c1c(Cl)cccc1Cl` was run?
A: Its pIC50 is 6.301.

Source: ChEMBL document CHEMBL1134628, “Are free energy calculations useful in practice? A comparison with rapid scoring functions for the p38 MAP kinase protein system” (J Med Chem, 2001)
